ChEMBL document CHEMBL1123898, “Antitumor imidazotetrazines. 14. Synthesis and antitumor activity of 6- and 8-substituted imidazo[5,1-d]-1,2,3,5-tetrazinones and 8-substituted pyrazolo[5,1-d]-1,2,3,5-tetrazinones” (1987)

Assays:
[1] = Antitumor activity was assessed against TLX5 tumors in CBA/CA mouse by inoculation of 2 x 10e5 tumor cells through sc route and number of survivors was reported at 40 mg/kg ip dose; 3/5; assay type: functional; conditions: route subcutaneous
[2] = system: L1210; assay: Antitumor activity was assessed against L1210 tumors in B6D2F1 mouse by inoculation of 10e5 tumor cells through iv route and mean death of animals (treated/control) was reported at 40 mg/kg po dose; assay type: functional
[3] = system: L1210; assay: Antitumor activity was assessed against L1210 tumors in B6D2F1 mouse by inoculation of 10e5 tumor cells through iv route and number of Survivors to duration was reported at 40 mg/kg po dose; 7/7; assay type: functional
[4] = Antitumor activity was assessed against TLX5 tumors in CBA/CA mouse by inoculation of 2 x 10e5 tumor cells through sc route and number of survivors was reported at 20 mg/kg ip dose; 3/5; assay type: functional; conditions: route subcutaneous
[5] = Antitumor activity was assessed against TLX5 tumors in CBA/CA mouse by inoculation of 2 x 10e5 tumor cells through sc route and mean death of animals (treated/control) was reported at 40 mg/kg dose; assay type: functional; conditions: route subcutaneous
[6] = Antitumor activity was assessed against TLX5 tumors in CBA/CA mouse by inoculation of 2 x 10e5 tumor cells through sc route and mean death of animals (treated/control) was reported at 80 mg/kg dose; assay type: functional; conditions: route subcutaneous
[7] = system: L1210; assay: Antitumor activity was assessed against L1210 tumors in B6D2F1 mouse by inoculation of 10e5 tumor cells through iv route and mean death of animals (treated/control) was reported at 20 mg/kg po dose; assay type: functional
[8] = Antitumor activity was assessed against TLX5 tumors in CBA/CA mouse by inoculation of 2 x 10e5 tumor cells through sc route and mean death of animals (treated/control) was reported at 20 mg/kg dose; assay type: functional; conditions: route subcutaneous
[9] = system: L1210; assay: Antitumor activity was assessed against L1210 tumors in B6D2F1 mouse by inoculation of 10e5 tumor cells through iv route and mean death of animals (treated/control) was reported at 10 mg/kg po dose; assay type: functional
[10] = Antitumor activity was assessed against TLX5 tumors in CBA/CA mouse by inoculation of 2 x 10e5 tumor cells through sc route and mean death of animals (treated/control) was reported at 10 mg/kg dose; assay type: functional; conditions: route subcutaneous
[11] = Antitumor activity was assessed against TLX5 tumors in CBA/CA mouse by inoculation of 2 x 10e5 tumor cells through sc route and number of Survivors to duration was reported at 20 mg/kg ip dose; 5/5; assay type: functional; conditions: route subcutaneous
[12] = system: L1210; assay: Antitumor activity was assessed against L1210 tumors in B6D2F1 mouse by inoculation of 10e5 tumor cells through iv route and number of Survivors to duration was reported at 10 mg/kg peroral dose; 1/7; assay type: functional; conditions: route oral
[13] = system: L1210; assay: Antitumor activity was assessed against L1210 tumors in B6D2F1 mouse by inoculation of 10e5 tumor cells through iv route and mean death of animals (treated/control) was reported at 2.5 mg/kg peroral dose; assay type: functional; conditions: route oral
[14] = system: L1210; assay: Antitumor activity was assessed against L1210 tumors in B6D2F1 mouse by inoculation of 10e5 tumor cells through iv route and mean death of animals (treated/control) was reported at 10 mg/kg peroral dose; assay type: functional; conditions: route oral
[15] = system: L1210; assay: Antitumor activity was assessed against L1210 tumors in B6D2F1 mouse by inoculation of 10e5 tumor cells through iv route and number of Survivors to duration was reported at 20 mg/kg peroral dose; 6/7; assay type: functional; conditions: route oral
[16] = system: L1210; assay: Antitumor activity was assessed against L1210 tumors in B6D2F1 mouse by inoculation of 10e5 tumor cells through iv route and mean death of animals (treated/control) was reported at 20 mg/kg peroral dose; assay type: functional; conditions: route oral
[17] = Antitumor activity was assessed against TLX5 tumors in CBA/CA mouse by inoculation of 2 x 10e5 tumor cells through sc route and mean death of animals (treated/control) was reported at 5 mg/kg dose; assay type: functional; conditions: route subcutaneous
[18] = system: L1210; assay: Antitumor activity was assessed against L1210 tumors in B6D2F1 mouse by inoculation of 10e5 tumor cells through iv route and mean death of animals (treated/control) was reported at 5 mg/kg peroral dose; assay type: functional; conditions: route oral
[19] = system: L1210; assay: Antitumor activity was assessed against L1210 tumors in B6D2F1 mouse by inoculation of 10e5 tumor cells through intraperitoneal route and number of Survivors to duration was reported at 40 mg/kg peroral dose; 2/10; conditions: route oral
[20] = Antitumor activity was assessed against TLX5 tumors in CBA/CA mouse by inoculation of 2 x 10e5 tumor cells through subcutaneous route and number of Survivors to duration was reported at 40 mg/kg iv dose; 5/5; assay type: functional
[21] = system: L1210; assay: Antitumor activity was assessed against L1210 tumors in B6D2F1 mouse by inoculation of 10e5 tumor cells through intravenous route and number of Survivors to duration was reported at 10 mg/kg peroral dose; 2/10; assay type: functional; conditions: route oral
[22] = Antitumor activity was assessed against TLX5 tumors in CBA/CA mouse by inoculation of 2 x 10e5 tumor cells through subcutaneous route and mean death of animals (treated/control) was reported at 80 mg/kg iv dose; assay type: functional
[23] = Antitumor activity was assessed against TLX5 tumors in CBA/CA mouse by inoculation of 2 x 10e5 tumor cells through subcutaneous route and mean death of animals (treated/control) was reported at 5 mg/kg dose; assay type: functional
[24] = Antitumor activity was assessed against TLX5 tumors in CBA/CA mouse by inoculation of 2 x 10e5 tumor cells through subcutaneous route and mean death of animals (treated/control) was reported at 40 mg/kg iv dose; assay type: functional
[25] = system: L1210; assay: Antitumor activity was assessed against L1210 tumors in B6D2F1 mouse by inoculation of 10e5 tumor cells through ip route and mean death of animals (treated/control) was reported at 10 mg/kg peroral dose; assay type: functional; conditions: route oral
[26] = Antitumor activity was assessed against TLX5 tumors in CBA/CA mouse by inoculation of 2 x 10e5 tumor cells through subcutaneous route and mean death of animals (treated/control) was reported at 10 mg/kg iv dose; assay type: functional
[27] = system: L1210; assay: Antitumor activity was assessed against L1210 tumors in B6D2F1 mouse by inoculation of 10e5 tumor cells through ip route and mean death of animals (treated/control) was reported at 20 mg/kg peroral dose; assay type: functional; conditions: route oral
[28] = system: L1210; assay: Antitumor activity was assessed against L1210 tumors in B6D2F1 mouse by inoculation of 10e5 tumor cells through intraperitoneal route and number of Survivors to duration was reported at 20 mg/kg peroral dose; 10/10; conditions: route oral
[29] = Antitumor activity was assessed against TLX5 tumors in CBA/CA mouse by inoculation of 2 x 10e5 tumor cells through subcutaneous route and mean death of animals (treated/control) was reported at 20 mg/kg dose; assay type: functional
[30] = system: L1210; assay: Antitumor activity was assessed against L1210 tumors in B6D2F1 mouse by inoculation of 10e5 tumor cells through ip route and mean death of animals (treated/control) was reported at 40 mg/kg peroral dose; assay type: functional; conditions: route oral
[31] = Antitumor activity was assessed against TLX5 tumors in CBA/CA mouse by inoculation of 2 x 10e5 tumor cells through subcutaneous route and number of Survivors to duration was reported at 20 mg/kg iv dose; 1/5; assay type: functional
[32] = system: L1210; assay: Antitumor activity was assessed against L1210 tumors in B6D2F1 mouse by inoculation of 10e5 tumor cells through intravenous route and mean death of animals (treated/control) was reported at 200 mg/kg peroral dose; assay type: functional; conditions: route oral
[33] = system: L1210; assay: Antitumor activity was assessed against L1210 tumors in B6D2F1 mouse by inoculation of 10e5 tumor cells through intravenous route and mean death of animals (treated/control) was reported at 50 mg/kg peroral dose; assay type: functional; conditions: route oral
[34] = system: L1210; assay: Antitumor activity was assessed against L1210 tumors in B6D2F1 mouse by inoculation of 10e5 tumor cells through intravenous route and mean death of animals (treated/control) was reported at 100 mg/kg peroral dose; assay type: functional; conditions: route oral
[35] = system: L1210; assay: Antitumor activity was assessed against L1210 tumors in B6D2F1 mouse by inoculation of 10e5 tumor cells through iv route and mean death of animals (treated/control) was reported at 80 mg/kg po dose; assay type: functional
[36] = Antitumor activity was assessed against TLX5 tumors in CBA/CA mouse by inoculation of 2 x 10e5 tumor cells through sc route and number of survivors to duration was reported at 40 mg/kg ip dose; 2/5; assay type: functional; conditions: route subcutaneous
[37] = system: L1210; assay: Antitumor activity was assessed against L1210 tumors in B6D2F1 mouse by inoculation of 10e5 tumor cells through iv route and mean death of animals (treated/control) was reported at 160 mg/kg po dose; assay type: functional
[38] = Antitumor activity was assessed against TLX5 tumors in CBA/CA mouse by inoculation of 2 x 10e5 tumor cells through sc route and mean death of animals (treated/control) was reported at 160 mg/kg dose; assay type: functional; conditions: route subcutaneous
[39] = Antitumor activity was assessed against TLX5 tumors in CBA/CA mouse by inoculation of 2 x 10e5 tumor cells through sc route and number of survivors to duration was reported at 80 mg/kg ip dose; 5/5; assay type: functional; conditions: route subcutaneous
[40] = Antitumor activity was assessed against TLX5 tumors in CBA/CA mouse by inoculation of 2 x 10e5 tumor cells through sc route and mean death of animals (treated/control) was reported at 320 mg/kg dose; assay type: functional; conditions: route subcutaneous

CN(C)S(=O)(=O)c1ncn2c(=O)n(CCCl)nnc12
Survivors [1]: 3
T/C [2]: >750%
Survivors [3]: 7
Survivors [4]: 3
T/C [5]: >381%
T/C [6]: 68%
T/C [7]: 222%
T/C [8]: >385%
T/C [9]: 152%

NS(=O)(=O)c1ncn2c(=O)n(CCCl)nnc12
T/C [10]: 160%
Survivors [11]: 5
Survivors [12]: 1
T/C [13]: 136%
T/C [14]: >376%
T/C [5]: 119%
Survivors [15]: 6
T/C [16]: >605%
T/C [8]: >476%
T/C [17]: 121%
T/C [18]: 207%

CCc1nc(C(N)=O)c2nnn(CCCl)c(=O)n12
T/C [2]: 212%
T/C [7]: 145%
T/C [9]: 105%

CNC(=O)c1ncn2c(=O)n(CCCl)nnc12
Survivors [19]: 2
Survivors [20]: 5
Survivors [21]: 2
T/C [22]: 72%
T/C [23]: 104%
T/C [24]: >555%
T/C [25]: >192%
T/C [26]: 133%
T/C [27]: >453%
Survivors [28]: 10
T/C [29]: >254%
T/C [30]: >215%
Survivors [31]: 1

NC(=O)c1nc(C2CCCCC2)n2c(=O)n(CCCl)nnc12
T/C [32]: 90%
T/C [33]: 94%
T/C [34]: 86%

Cc1nc(C(N)=O)c2nnn(CCCl)c(=O)n12
T/C [35]: 248%
T/C [2]: 180%
Survivors [36]: 2
T/C [37]: 267%
T/C [38]: 80%
T/C [5]: >343%
T/C [6]: >550%
Survivors [39]: 5
T/C [8]: 176%
T/C [9]: 128%
T/C [40]: 66%

CN(C(=O)c1ncn2c(=O)n(CCCl)nnc12)c1ccccc1
T/C [32]: 100%
T/C [33]: 100%
T/C [34]: 100%
